Residue numbers refer to the chain shown, from its start.
Assays:
[1] = molecular target: T1, LCAD (long-chain acyl-CoA dehydrogenase) (Homo sapiens, UniProt P28330); assay: acyl-CoA oxidase assay; type: biochemical; settings: oxygen as electron acceptor; 50 mM phosphate pH 7.0, 30 °C
T1 sequence (P28330 31-430): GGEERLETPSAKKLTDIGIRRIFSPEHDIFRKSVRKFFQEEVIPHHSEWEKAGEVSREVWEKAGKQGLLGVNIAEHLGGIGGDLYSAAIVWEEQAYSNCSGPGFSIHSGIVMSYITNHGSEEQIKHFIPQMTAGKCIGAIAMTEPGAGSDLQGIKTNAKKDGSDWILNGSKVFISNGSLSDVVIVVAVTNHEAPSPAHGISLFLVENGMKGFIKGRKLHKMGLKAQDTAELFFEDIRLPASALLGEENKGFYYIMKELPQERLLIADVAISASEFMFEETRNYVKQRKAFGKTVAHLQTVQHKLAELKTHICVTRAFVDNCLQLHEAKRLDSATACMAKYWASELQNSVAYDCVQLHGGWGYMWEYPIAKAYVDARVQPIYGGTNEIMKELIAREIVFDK

[2] = molecular target: T2, LCAD (long-chain acyl-CoA dehydrogenase) (Homo sapiens, UniProt P28330, K333Q); assay: acyl-CoA oxidase assay; type: biochemical; settings: oxygen as electron acceptor; 50 mM phosphate pH 7.0, 30 °C
T2 sequence (P28330 31-430 K333Q): T1 sequence (P28330 31-430) with K303Q

[3] = molecular target: T1, LCAD (long-chain acyl-CoA dehydrogenase); assay: absorbance scan, A443/A280 FAD content; type: binding; settings: 100 uM free FAD, 37 °C, 20 min, then dialysis; non-covalent FAD

SMILES | acyl-CoA oxidase assay (HRP / Amplex UltraRed fluorescence, H2O2) [1] | acyl-CoA oxidase assay (HRP / Amplex UltraRed fluorescence, H2O2) [2] | A443/A280 [3]
CCCCCCCCCCCCCCCCCC(=O)SCCNC(=O)CCNC(=O)[C@H](O)C(C)(C)COP(=O)(O)OP(=O)(O)OC[C@H]1O[C@@H](n2cnc3c(N)ncnc32)[C@H](O)[C@@H]1OP(=O)(O)O [C18-CoA, stearoyl-CoA] | C18-CoA was used as substrate as this chain length produces the highest H2O2 production | the presence of the K333Q substitution significantly reduced oxidase activity | 
Cc1cc2nc3c(=O)[nH]c(=O)nc-3n(C[C@H](O)[C@H](O)[C@H](O)COP(=O)(O)OP(=O)(O)OC[C@H]3O[C@@H](n4cnc5c(N)ncnc54)[C@H](O)[C@@H]3O)c2cc1C [FAD] |  |  | After incubation of wild-type LCAD with FAD, the A443/A280 ratio, an indicator of enzyme-bound FAD
